We go through ten molecules from PubChem BioAssay (NCI).

Experiment in all cases: inhibition of tumour cell growth, NCI panel, 48 h
Assay [1] relates to SF-268 CNS.
The subject of assay [2] is CAKI-1 renal.
Assay [3] deals with SR leukemia.
In assay [4] the test system is TK-10 renal.
Assay [5] concerns HCT-15 colon.
The test system of assay [6] is NCI-H226 lung.
Assay [7] has as its system M14 melanoma.
The test system of assay [8] is NCI-H23 lung.
Assay [9] has as its system RXF 393 renal.
Assay [10] has as its system A498 renal.

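1) Cells in 96-well plates. 2) Compound, 48 h, 5 concentrations. 3) Linear interpolation between surrounding doses. 4) Unreached endpoint = highest concentration. GI50 = concentration required for 50% inhibition of growth. TGI: concentration producing complete growth inhibition.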 A value given as a limit tells only on which side of the number the result lay.

Regarding `COC(=O)c1ccc(OCc2ccc3oc(=O)c(-c4ccccc4)nc3c2)cc1`, the TGI in assay [1], in [2], in assay [3], in [4], in assay [5] and in assay [6] was above 100 µM in each case. The TGI in assay [7] and in assay [8] was above 100 µM in each case.

Take `Cc1cc2occ(C)c(=O)c2c2c1OC(C)(C)S2`: the TGI in assay [1], in assay [3], in [4], in [5], in assay [6] and in [7] was above 100 µM in each case. The TGI in assay [9] and in assay [8] was above 100 µM each time.

In the case of `CCCN(CCCCC(NC(C)=O)C(=O)NCc1ccccc1)C(=O)NC` (stereo not drawn), the TGI in assay [1], in assay [2], in assay [4], in assay [10], in [5] and in assay [6] was above 100 µM in each case. The TGI in [7], in assay [9] and in assay [8] was above 100 µM each time.

Take `CCc1cccc(C)c1NC(=O)CC1Sc2ccccc2NC1=O` (stereo not drawn): the TGI was above 100 µM in assay [1]; above 100 µM in assay [2]; above 100 µM in [4]; 72.8 µM in assay [10]; above 100 µM in assay [5]; 64.6 µM in assay [6]. In addition, the TGI in [7] was above 100 µM; in [9], 73.7 µM; in assay [8], above 100 µM.

In the case of `CCCN(CCC)c1c([N+](=O)[O-])cc(S(N)(=O)=O)cc1[N+](=O)[O-]`, the TGI in assay [1] was found to be 32.8 µM; in assay [2], 26.4 µM; in [3] it was 57.4 µM; in assay [5] it was 32.2 µM; in assay [6], 42.7 µM; in assay [7], 30.9 µM. Besides, the TGI in [8] amounted to 32.3 µM.

For the molecule `Cc1cc(O)cc(C)c1/C=C/c1cncc(C(=O)N(C)C)c1`, the GI50 in assay [1], in [2], in [4], in assay [10], in [5] and in [6] was above 25 µM in each case. Also, the GI50 in [7], in assay [9] and in assay [8] was above 25 µM throughout. Besides, the TGI in [1], in [2], in [4], in [10], in assay [5] and in [6] was above 25 µM each time. Further, the TGI in assay [7], in assay [9] and in assay [8] was above 25 µM each time.

On to `ClCCn1cnc2c(SCc3ccccc3)ncnc21`, for which the GI50 was 1.49 µM in assay [1]; 8.86 µM in [2]; 0.924 µM in assay [4]; 3.23 µM in assay [10]; 0.334 µM in assay [5]; 31 µM in assay [6]. Further, the GI50 in assay [7] is 7.04 µM; in assay [9] it was 11.4 µM; in assay [8] it was 29.2 µM. The TGI in assay [1] is above 100 µM; in [2], above 100 µM; in [4], above 100 µM; in assay [10], 74.6 µM; in assay [5], above 100 µM; in assay [6], above 100 µM. The TGI in assay [7] was above 100 µM; in assay [9] it was 63.5 µM; in [8], above 100 µM.

On to `O=C1C=C(c2cc(Br)c(O)c(Br)c2)/C(=C/c2cc(Br)c(O)c(Br)c2)O1`, for which the GI50 is 30.5 µM in [1]; 34.3 µM in [2]; 35.8 µM in assay [4]; 20.1 µM in [10]; 28.8 µM in [5]; 43.6 µM in assay [6]. The results for the GI50 in assay [7], in assay [9] and in [8] were 17.8 µM, 1.82 µM and 35.2 µM, respectively. Further, the TGI is above 75 µM in assay [1]; above 75 µM in [2]; above 75 µM in assay [4]; 57.2 µM in [10]; above 75 µM in assay [5]; above 75 µM in assay [6]. Moreover, the TGI in assay [7] was above 75 µM; in assay [9], 23.6 µM; in assay [8], above 75 µM.

On to `O=C(O)c1[nH]c(C(=O)O)c(CC(F)(F)C(F)(F)C(F)(F)F)c1CC(F)(F)C(F)(F)C(F)(F)F`, for which the TGI in assay [1], in assay [2], in assay [4], in assay [10], in assay [5] and in assay [6] was above 100 µM each time. In addition, the TGI in assay [7], in assay [9] and in assay [8] was above 100 µM each time.

With `Cc1c2ncccc2c(C)c2c1[nH]c1ccccc12`, the TGI in assay [1] worked out at 34.8 µM; in [2] it was 22 µM; in assay [4] it was 31.7 µM; in assay [10] it was 25.2 µM; in [5], 54.3 µM; in assay [6] it was 35.9 µM. The TGI in assay [7] turned out to be 44.9 µM; in assay [9], 25.9 µM; in assay [8], 26 µM.
